# Results reported in patent US7858322B2, “Method of determining inhibition of binding to TRPM7 protein” (NoNo, Inc., priority 2003, dated 2010).
# System: cultured neurons
# Test: Neuronal survival 20 h after 1 h NMDA challenge
# Assay type: cell-based
# Conditions: peptide applied immediately after the NMDA challenge; FIG. 14
# Experimental: The sequence of Tat-9cTRPM7 is: [[…] or [[…]-[…]] (SEQ ID NO:258), whereby the first 11 residues correspond to the cell membrane transduction domain of the human immunodeficiency virus type 1 (HIV-1) Tat protein and the last 9 residues correspond to the last 9 amino acids of the C-terminus of human TRPM7 (accession Q96QT4). […] (A) Neuronal survival at 20 h in the indicated concentrations of Tat-9cTRPM7 in the absence of excitotoxic challenge. (B) Neuronal survival 20 h after challenging the cultures for 1 h with the indicated concentration of NMDA. Tat-9cTRPM7 was applied immediately after the NMDA challenge.
# The sequence of Tat-9cTRPM7 is: [[…]-[…]; SEQ ID NO:258], whereby the first 11 residues correspond to the cell-membrane transduction domain of the human immunodeficiency virus type 1 (HIV-1) Tat protein and the last 9 residues correspond to the last 9 amino acids of the C-terminus of human TRPM7 (accession Q96QT4). (A) Neuronal survival at 20 h in the indicated concentrations of Tat-9cTRPM7 in the absence of excitotoxic challenge. (B) Neuronal survival 20 h after challenging the cultures for 1 h with the indicated concentration of NMDA. Tat-9cTRPM7 was applied immediately after the NMDA challenge.
substance,measurement,value
"YGRKKRRQRRR-STNSVRLML (YGRKKRRQRRRSTNSVRLML) [Tat-9cTRPM7, HIV-1 Tat transduction domain fused to last 9 amino acids of human TRPM7]",Neuronal survival 20 h after challenging the cultures for 1 h with NMDA,enhanced survival when challenged with NMDA
